Laboratory results from BindingDB's records for doi:10.1016/s0960-894x(01)00577-7 (University of Toledo, 2001).

assay: Inhibitory concentration against polymerization in A17 double mutant HIV-1 RT using a template primer of poly rC/dG12-18 and [3H]dGTP

SMILES	IC50 [µM]
O=C(OC1COc2cc(O)ccc2C1)c1ccc(O)c(O)c1O (stereo not drawn) [2,3,4-Trihydroxy-benzoic acid 7-hydroxy-chroman-3-yl ester]	30.8
O=C(OC1COc2cc(O)cc(O)c2C1)c1cccc(O)c1O (stereo not drawn) [2,3-Dihydroxy-benzoic acid 5,7-dihydroxy-chroman-3-yl ester]	> 100
O=C(OC1COc2ccccc2C1)c1ccc(O)c(O)c1O (stereo not drawn) [2,3,4-Trihydroxy-benzoic acid chroman-3-yl ester]	> 100
